Measurements published in ChEMBL document CHEMBL1145947, “Generation of bis-cationic heterocyclic inhibitors of Bacillus subtilis HPr kinase/phosphatase from a ditopic dynamic combinatorial library” (J Med Chem, 2003).

How the values were obtained:
HPr kinase/phosphorylase [1] = target: T1, HPr kinase/phosphorylase (Bacillus subtilis (strain 168), UniProt O34483); assay: Inhibition of bifunctional enzyme HPr kinase/phosphatase from Bacillus subtilis at pH 8.0 and hill coefficient of 2.9
T1 sequence (O34483 whole entry): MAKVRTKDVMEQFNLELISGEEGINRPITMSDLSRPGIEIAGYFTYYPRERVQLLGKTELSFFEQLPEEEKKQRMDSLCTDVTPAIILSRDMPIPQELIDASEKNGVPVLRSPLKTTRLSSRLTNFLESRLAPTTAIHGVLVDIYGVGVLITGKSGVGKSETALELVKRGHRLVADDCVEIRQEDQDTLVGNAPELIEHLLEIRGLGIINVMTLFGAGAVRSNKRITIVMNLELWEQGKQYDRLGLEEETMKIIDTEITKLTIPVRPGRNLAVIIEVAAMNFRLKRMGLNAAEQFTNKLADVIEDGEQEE

HPr kinase/phosphorylase [2] = target: T1, HPr kinase/phosphorylase; assay: Inhibition of bifunctional enzyme HPr kinase/phosphatase from Bacillus subtilis at pH 7.0 and hill coefficient of 1.4

N=c1n(CC(=O)N/N=C/c2ccc(/C=N/NC(=O)Cn3c(=N)n(Cc4ccccc4)c4ccccc43)cc2)c2ccccc2n1Cc1ccccc1
IC50 (HPr kinase/phosphorylase [1]): 18 µM | IC50 (HPr kinase/phosphorylase [2]): 17 µM
